According to patent US20150065494A1, “AMINOSTYRYLBENZOFURAN DERIVATIVES AS INHIBITORS AGAINST BETA-AMYLOID FIBRIL FORMATION, AND PHARMACEUTICAL COMPOSITION COMPRISING SAME” (KOREA INSTITUTE OF SCIENCE AND TECHNOLOGY, priority 2012, published 2015):
Where a name gives a salt, the structure may show the parent alone. Read-outs that look alike come from different tables or passages of the source.

Tests used:
[1] = target: hERG potassium ion channel (Homo sapiens, UniProt Q12809); test: Inhibitory effect of hERG potassium ion channel (whole-cell patch clamp, HEK-hERG cell line); format: cell-based
hERG potassium ion channel, sequence (Q12809 whole entry): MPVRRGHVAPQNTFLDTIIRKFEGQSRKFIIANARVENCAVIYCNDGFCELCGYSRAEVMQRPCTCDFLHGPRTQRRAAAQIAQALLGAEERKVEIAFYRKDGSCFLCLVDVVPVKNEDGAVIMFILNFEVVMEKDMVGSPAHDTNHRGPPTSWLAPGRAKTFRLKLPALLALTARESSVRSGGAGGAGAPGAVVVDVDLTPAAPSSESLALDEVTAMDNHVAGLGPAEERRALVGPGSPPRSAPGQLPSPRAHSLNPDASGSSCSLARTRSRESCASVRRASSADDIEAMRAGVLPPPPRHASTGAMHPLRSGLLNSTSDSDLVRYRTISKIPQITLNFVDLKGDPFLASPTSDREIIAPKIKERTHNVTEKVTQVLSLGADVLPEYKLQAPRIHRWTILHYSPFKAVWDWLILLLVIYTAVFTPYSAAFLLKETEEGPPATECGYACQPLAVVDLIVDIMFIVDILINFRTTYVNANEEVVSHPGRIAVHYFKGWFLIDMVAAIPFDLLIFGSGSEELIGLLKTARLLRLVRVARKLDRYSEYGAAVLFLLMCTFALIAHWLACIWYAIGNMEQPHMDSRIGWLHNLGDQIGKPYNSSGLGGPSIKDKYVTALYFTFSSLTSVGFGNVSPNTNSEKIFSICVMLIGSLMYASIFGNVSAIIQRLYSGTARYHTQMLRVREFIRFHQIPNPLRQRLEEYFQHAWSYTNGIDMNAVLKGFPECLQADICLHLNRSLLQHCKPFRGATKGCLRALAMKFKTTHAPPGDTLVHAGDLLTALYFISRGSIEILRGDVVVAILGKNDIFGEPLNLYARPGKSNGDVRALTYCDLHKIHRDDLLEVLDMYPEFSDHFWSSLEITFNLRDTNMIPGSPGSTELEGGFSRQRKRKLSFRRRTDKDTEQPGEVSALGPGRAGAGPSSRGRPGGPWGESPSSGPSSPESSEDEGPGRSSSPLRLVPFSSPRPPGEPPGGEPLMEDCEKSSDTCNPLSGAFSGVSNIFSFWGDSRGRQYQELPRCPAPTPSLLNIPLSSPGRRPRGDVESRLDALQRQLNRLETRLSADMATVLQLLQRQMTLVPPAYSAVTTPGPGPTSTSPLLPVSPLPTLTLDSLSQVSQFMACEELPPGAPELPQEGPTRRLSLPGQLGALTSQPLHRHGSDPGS
Protocol: A HEK-hERG cell line (IonGate Biosciences, Frankfrut, Germany) which stably expresses hERG was cultured in a DMEM (Dulbecco's modified Eagle's Medium, Sigma Co., St. Louis, Mo., USA) supplemented with 10% fetal bovine serum (FBS, Cambrex, Walkesville, Md., USA) and 0.5 mg/mL zeocin (Invitrogen, Carlsbad, Calif., USA). The cell line was subcultured for 5 days after culture when 80% confluency was reached.
A solution within an electrode used to measure the potassium ion current is composed of 115 mM K-aspartate, 20 mM KCl, 10 mM EGTA, 10 mM HEPES, 2.5 mM tris-phosphocreatine, 0.1 mM Na2GTP and 5 mM MgCl2 (pH 7.2, 290 mOsm/Kg H2O). A solution for an extracellular perfusate is composed of 135 mM NaCl, 5 mM KCl, 1 mM MgCl2, 2 mM CaCl2, 10 mM glucose and 10 mM HEPES (pH 7.2, 300 mOsm/Kg H2O). […]
Potassium ion current was measured by using EPC10 (Instrutech Co., NY, USA) patch clamp amplifier in accordance with the conventional whole-cell patch clamp method. […] The membrane capacitance and series resistance of cell membrane were calibrated by 80% or more and potassium ion current was measured at a sampling rate of 2 kHz and a low-pass filter of 2 kHz (−3 dB; 8-pole Bassel filter). […]
The results were analyzed by using Pulse/Pulsefit (v9.0, HEKA Elektronik, Lambrecht, Germany) and Igor macro. […]

beta-amyloid 42 (Aβ42) = target: T1, beta-amyloid 42 (Aβ42) (Homo sapiens, UniProt P05067); test: Inhibitory effect on the formation of beta-amyloid fibrils in vitro (ThT fluorescence assay); format: biochemical; details: for inhibition at 10 µM: 10 μM compound, 25 μM Aβ42, ThT fluorescence
T1 construct: Beta-amyloid 42 (Aβ42) was dissolved in dimethylsulfoxide (DMSO) to form a 250 mM Aβ42 stock solution
T1 sequence (P05067 672-713 limits assumed): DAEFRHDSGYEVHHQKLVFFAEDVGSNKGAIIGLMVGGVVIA
Protocol: Beta-amyloid 42 (Aβ42) was dissolved in dimethylsulfoxide (DMSO) to form a […] Aβ42 stock solution. In addition, ThT (thioflavin T) was dissolved in distilled water to obtain a concentration of 1 mM and subsequently diluted with 50 mM glycin buffer (pH 8.5) to yield a 5 μM ThT stock solution. 45 μL of PBS (phosphate buffer saline, pH 7.4) was added to each of a 96-well fluorescence microplate (white, F-bottom). 5 μL of the 250 μM Aβ42 stock solution was added to each well. The final concentration of each compound obtained in Examples was in a range of 10 to 0.001 μM by adding 2 μL of a solution, which was prepared by dissolving the subject compounds obtained in Examples in DMSO, to each well. At this time, the final concentration of Aβ42 in each well was 25 μM. The plate was then incubated for 1 hr at room temperature, and 150 μL of the 5 μM ThT stock solution was added to each well.
The fluorescence intensity of each well was determined with the multi-label fluorescence counter (LS-55 Luminescence spectrometer: Perkin Elmer) at an excitation wavelength of 450 nm (excitation slit width: 10 nm) and an emission wavelength of 482 nm (emission slit width: 10 nm), while adjusting counting time to 1 second. The control group was prepared by adding PBS solution, Aβ42 and DMSO, without adding the inventive compound prepared above. A percent inhibition on the formation of beta-amyloid fibrils was calculated in accordance with the following equation, and IC50 was calculated by using GraphPad Prism version 4.03 Program.
% Inhibition=[1−(C−D)/(A−B)]×100
A (control group)=fluorescence intensity in a group treated with PBS solution, Aβ42 and DMSO
B (blank)=fluorescence intensity in a group treated with PBS solution and DMSO
C (experimental group)=fluorescence intensity in a group treated with PBS solution, Aβ42, the inventive compound and DMSO
D (compensation value to the experimental group) =fluorescence intensity in a group treated with PBS solution, the inventive compound and DMSO

[2] = Pharmacokinetics test (blood concentration) in mice and rats; format: in vivo, ICR mice and SD rats
Protocol: (§1) Three 7 week-old ICR mice (weight: approximately 30 g) and three 8 week-old SD rats (weight: approximately 250 g) were used per test group. A solution prepared by dissolving a hydrochloride salt of the compound of Example 3 in excipient (DMSO/Tween 20/saline: 0.1/0.6/2.3, v/v/v) or distilled water was administered to each experimental animal. The test compound was intravenously administered in an amount of 5 mL per kg of body weight through the fine vein or orally administered in an amount of 10 mL per kg of body weight.
At 0.5, 1, 2, 4, 10, and 24 hrs after the oral administration of the test compounds, the blood was collected from periorbital veins into the tube containing heparin (1000 IU/mL, 3 μL) for the mice, and from jugular veins for rats. The blood samples were centrifuged (12,000 rpm for 2 min, Eppendorf Co.) to obtain plasmas and the obtained plasmas were kept in a freezer until the analysis at −80° C.
(§2) 50 μL of plasma was placed in a 2.0 mL tube with a cap (Eppendorf Co.) and acidified by adding 20 μL of 0.1% formic acid thereto. An internal standard solution and 1 mL of ethyl acetate as an extract solvent were added to the resulting solution. The resulting solution was mixed by using a thermomixer (Eppendorf Co.) for 5 min at 1,400 rpm, and then subjected to centrifugation (Eppendorf Co.). The supernatant was collected and concentrated at 35° C. by using a cyclone. The residue was re-dissolved in 50 μL of mobile phase and 5 μL of the resulting solution was injected into LC/MS and analyzed.
(§3) In Table 3, “iv” refers to intravenous injection; “po” refers to per oral; “AUC plasma” refers to an area under the plasma level-time curve; “Cmax” refers to a maximum plasma concentration; “Tmax” refers to a time to reach Cmax; “BA” refers to bioavailability (%) according to Equation 2 below; “AUC Brain” refers to an area under the brain tissue level-time curve; and “AUCBrain/AUCPlasma” refers to a passage rate of the test compound to the brain.
Bioavailability (%)=[(AUCpo/AUCiv)×(Doseiv/Dosepo)×100]
In the above Equation, AUCpo refers to an area under the blood concentration time curve (AUC) after per oral administration, AUCiv means an AUC after the intravenous injection; Doseiv refers to a dose of the intravenous injection; and Dosepo refers to a dose of the per os.

[3] = Passage test through the blood-brain barrier (brain tissue concentration); format: in vivo, ICR mice and SD rats; details: for Kp: brain, read-out: AUCBrain/AUCPlasma
Protocol: as §1, with “v/v/v)” for “v/v/v) or distilled water”
At 0.5, 1, 2, 4, 10 and 24 hrs after the administration of the test compound, the mice and rats were subjected to insufflations narcosis using isoflorane, followed by cutting the abdomen open. Subsequently, 1 mL of blood was collected from abdominal veins into the tube containing heparin (1000 IU/mL, 3 μL). The obtained blood samples were centrifuged for 2 min at 12,000 rpm to obtain plasma. The obtained plasmas were kept in a freezer at −80° C. until the analysis.
The mice and rats from which the blood samples were obtained were subjected to bloodletting, and then, the brain tissues of the mice and rats was collected. The brain tissue thus obtained was washed with physiological saline 1 or 2 times to remove blood. The weight of the brain tissue was measured after the removal of adipose tissue and peripheral tissue. 4% bovine serum albumin (BSA) solution diluted with 10-fold was added to the brain tissue. The resulting solution was subjected to homogenization using a homogenizer. The diluted homogenate thus obtained was placed in 2 mL tube and was kept in a freezer at −80° C. until the analysis. All of the treatments to the sample were performed in ice.
as §2, with “cap (Eppendorf Co.). An internal” for “cap (Eppendorf Co.) and acidified by adding 20 μL of 0.1% formic acid thereto. An internal”, “by using thermomixer (Eppendorf” for “by using a thermomixer (Eppendorf”, “min at 1400 rpm, and” for “min at 1,400 rpm, and”
as §3

inhibition at 10 µM (beta-amyloid 42 (Aβ42)) [%]	BA ([2]; 10.0 mg/kg po vs 5.0 mg/kg iv) [%]	AUC ([2]; plasma, 5.0 mg/kg, iv, n = 3) [ng·h/mL]	AUC ([2]; plasma, 10.0 mg/kg, po, n = 3) [ng·h/mL]	Cmax ([2]; plasma, 10.0 mg/kg, po, n = 3) [ng/mL]	Tmax ([2]; plasma, 10.0 mg/kg, po, n = 3) [h]	AUC Brain ([3]; 5.0 mg/kg, iv, brain tissue)	AUC Brain ([3]; 10.0 mg/kg, po, brain tissue)	Cmax (brain) ([3]; 10.0 mg/kg, po, brain tissue)	Tmax ([3]; 10.0 mg/kg, po, brain tissue) [h]	Kp ([3]; 5.0 mg/kg, iv)	Kp ([3]; 10.0 mg/kg, po)	Compound	inhibitory efficacy on hERG potassium ion channel ([1]; result in words)	IC50 ([1]; HEK-hERG cells, whole-cell patch clamp, mean ± standard error) [µM]	Aβ42 % inhibition compared with comparative compound curcumin (beta-amyloid 42 (Aβ42); 10 μM)
–	–	–	–	–	–	–	–	–	–	–	–	CN(C)CCOc1ccc2cc(/C=C/c3ccc(N(C)C)cc3)oc2c1 [Example 2, (E)-6-(2-dimethylaminoethoxy)-2-(4-dimethylaminostyryl)benzofuran]	insignificant inhibitory efficacy	–	–
≥ 70	–	–	–	–	–	–	–	–	–	–	–	CN(C)CCOc1ccc2cc(/C=C/c3ccc(N(C)C)cc3)oc2c1 [Example 22, (E)-6-(2-dimethylaminoethoxy)-2-(4-dimethylaminostyryl)benzofuran hydrochloride]	–	52.1 ± 3.68	–
≥ 70	43.4	535	472	62.7	4	54,114.7 ng · h/ml	27,412 ng · h/ml	3,828 ng/ml	10	101	58.1	CN(C)CCCOc1ccc2cc(/C=C/c3ccc(N(C)C)cc3)oc2c1.Cl [Example 23, (E)-6-(3-dimethylaminopropoxy)-2-(4-dimethylaminostyryl)benzofuran hydrochloride]	–	–	equal to or greater than that of the comparative compound, curcumin
